Laboratory results taken from ChEMBL document CHEMBL5212743, “Selectivity Literature for EUbOPEN Chemogenomics Library wave 3” (2023).

What was measured:
[1] = target: Sodium-dependent dopamine transporter (Homo sapiens, UniProt Q01959); assay: Selectivity interaction (Enzyme panel (CEREP ligand profiling)) EUB0000328a SLC6A3; conditions: at 10 µM
[2] = system: Tyrosine-protein kinase ABL1 (Homo sapiens), P00519 [H396P]; assay: Selectivity interaction (KinomeScan (DiscoverX)) EUB0000328a ABL1; conditions: at 1 µM
[3] = target: Protein kinase C epsilon type (Homo sapiens) (UniProt Q02156); assay: Selectivity interaction (KinomeScan (DiscoverX)) EUB0000328a PRKCE; conditions: at 1 µM
[4] = target: T1, Serine/threonine-protein kinase LATS2 (Homo sapiens) (UniProt Q9NRM7); assay: Selectivity interaction (KinomeScan (DiscoverX)) EUB0000328a LATS2; conditions: at 1 µM
T1 sequence (whole entry): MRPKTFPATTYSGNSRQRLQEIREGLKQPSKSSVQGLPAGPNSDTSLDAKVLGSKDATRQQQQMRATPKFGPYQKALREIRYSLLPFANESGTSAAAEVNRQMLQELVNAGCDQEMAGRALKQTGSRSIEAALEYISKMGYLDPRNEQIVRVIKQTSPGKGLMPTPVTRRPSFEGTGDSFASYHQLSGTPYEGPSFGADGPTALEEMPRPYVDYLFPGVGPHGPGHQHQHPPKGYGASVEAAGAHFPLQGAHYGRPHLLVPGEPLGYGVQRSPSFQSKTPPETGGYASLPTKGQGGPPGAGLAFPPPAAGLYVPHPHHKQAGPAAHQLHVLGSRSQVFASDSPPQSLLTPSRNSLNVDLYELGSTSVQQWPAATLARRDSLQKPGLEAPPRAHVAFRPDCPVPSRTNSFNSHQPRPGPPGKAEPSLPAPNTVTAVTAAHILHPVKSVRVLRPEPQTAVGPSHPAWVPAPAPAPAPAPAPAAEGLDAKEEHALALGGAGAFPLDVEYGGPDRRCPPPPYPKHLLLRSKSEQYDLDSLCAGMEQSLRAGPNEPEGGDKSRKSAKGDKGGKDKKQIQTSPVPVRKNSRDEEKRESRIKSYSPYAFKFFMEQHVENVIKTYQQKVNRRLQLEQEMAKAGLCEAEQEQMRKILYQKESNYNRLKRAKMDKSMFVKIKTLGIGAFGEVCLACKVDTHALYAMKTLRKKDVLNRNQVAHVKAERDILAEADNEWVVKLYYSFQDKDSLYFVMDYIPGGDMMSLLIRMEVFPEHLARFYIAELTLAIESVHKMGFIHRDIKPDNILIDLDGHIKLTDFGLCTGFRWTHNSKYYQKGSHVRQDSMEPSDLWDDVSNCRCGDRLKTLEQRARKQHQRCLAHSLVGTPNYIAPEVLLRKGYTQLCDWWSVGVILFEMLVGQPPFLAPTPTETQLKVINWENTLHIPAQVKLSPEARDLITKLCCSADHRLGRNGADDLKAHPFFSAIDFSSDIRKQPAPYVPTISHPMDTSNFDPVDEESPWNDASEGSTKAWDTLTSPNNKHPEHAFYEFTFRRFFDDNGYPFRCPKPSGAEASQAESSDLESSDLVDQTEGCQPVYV

[5] = target: Sodium-dependent serotonin transporter (Homo sapiens) (UniProt P31645); assay: Selectivity interaction (Enzyme panel (CEREP ligand profiling)) EUB0000328a SLC6A4; conditions: at 10 µM
[6] = target: T2, Gamma-aminobutyric acid receptor subunit alpha-1 (Homo sapiens, UniProt P14867); assay: Selectivity interaction (GPCR panel (PDSP screen)) EUB0000328a GABRA1
T2 sequence (P14867 whole entry): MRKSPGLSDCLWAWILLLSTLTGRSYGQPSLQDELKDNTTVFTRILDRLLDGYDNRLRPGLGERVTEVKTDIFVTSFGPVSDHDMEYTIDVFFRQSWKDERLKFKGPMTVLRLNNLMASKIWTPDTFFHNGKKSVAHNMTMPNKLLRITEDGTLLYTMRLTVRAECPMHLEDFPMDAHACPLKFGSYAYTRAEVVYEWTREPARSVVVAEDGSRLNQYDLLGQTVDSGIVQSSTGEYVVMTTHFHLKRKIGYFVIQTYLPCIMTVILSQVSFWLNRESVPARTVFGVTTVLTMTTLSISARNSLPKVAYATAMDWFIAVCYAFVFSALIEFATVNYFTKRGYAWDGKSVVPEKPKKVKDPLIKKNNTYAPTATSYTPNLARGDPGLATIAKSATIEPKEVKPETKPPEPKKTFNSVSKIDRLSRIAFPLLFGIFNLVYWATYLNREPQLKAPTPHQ

[7] = target: Epithelial discoidin domain-containing receptor 1 (Homo sapiens, UniProt Q08345); assay: Selectivity interaction (KinomeScan (DiscoverX)) EUB0000710a DDR1; conditions: at 1 µM
[8] = system: Epidermal growth factor receptor (Homo sapiens), P00533 [L861Q]; assay: Selectivity interaction (KinomeScan (DiscoverX)) EUB0000710a EGFR; conditions: at 1 µM
[9] = target: T3, Myosin-IIIb (Homo sapiens) (UniProt Q8WXR4); assay: Selectivity interaction (KinomeScan (DiscoverX)) EUB0000710a MYO3B; conditions: at 1 µM
T3 sequence (whole entry): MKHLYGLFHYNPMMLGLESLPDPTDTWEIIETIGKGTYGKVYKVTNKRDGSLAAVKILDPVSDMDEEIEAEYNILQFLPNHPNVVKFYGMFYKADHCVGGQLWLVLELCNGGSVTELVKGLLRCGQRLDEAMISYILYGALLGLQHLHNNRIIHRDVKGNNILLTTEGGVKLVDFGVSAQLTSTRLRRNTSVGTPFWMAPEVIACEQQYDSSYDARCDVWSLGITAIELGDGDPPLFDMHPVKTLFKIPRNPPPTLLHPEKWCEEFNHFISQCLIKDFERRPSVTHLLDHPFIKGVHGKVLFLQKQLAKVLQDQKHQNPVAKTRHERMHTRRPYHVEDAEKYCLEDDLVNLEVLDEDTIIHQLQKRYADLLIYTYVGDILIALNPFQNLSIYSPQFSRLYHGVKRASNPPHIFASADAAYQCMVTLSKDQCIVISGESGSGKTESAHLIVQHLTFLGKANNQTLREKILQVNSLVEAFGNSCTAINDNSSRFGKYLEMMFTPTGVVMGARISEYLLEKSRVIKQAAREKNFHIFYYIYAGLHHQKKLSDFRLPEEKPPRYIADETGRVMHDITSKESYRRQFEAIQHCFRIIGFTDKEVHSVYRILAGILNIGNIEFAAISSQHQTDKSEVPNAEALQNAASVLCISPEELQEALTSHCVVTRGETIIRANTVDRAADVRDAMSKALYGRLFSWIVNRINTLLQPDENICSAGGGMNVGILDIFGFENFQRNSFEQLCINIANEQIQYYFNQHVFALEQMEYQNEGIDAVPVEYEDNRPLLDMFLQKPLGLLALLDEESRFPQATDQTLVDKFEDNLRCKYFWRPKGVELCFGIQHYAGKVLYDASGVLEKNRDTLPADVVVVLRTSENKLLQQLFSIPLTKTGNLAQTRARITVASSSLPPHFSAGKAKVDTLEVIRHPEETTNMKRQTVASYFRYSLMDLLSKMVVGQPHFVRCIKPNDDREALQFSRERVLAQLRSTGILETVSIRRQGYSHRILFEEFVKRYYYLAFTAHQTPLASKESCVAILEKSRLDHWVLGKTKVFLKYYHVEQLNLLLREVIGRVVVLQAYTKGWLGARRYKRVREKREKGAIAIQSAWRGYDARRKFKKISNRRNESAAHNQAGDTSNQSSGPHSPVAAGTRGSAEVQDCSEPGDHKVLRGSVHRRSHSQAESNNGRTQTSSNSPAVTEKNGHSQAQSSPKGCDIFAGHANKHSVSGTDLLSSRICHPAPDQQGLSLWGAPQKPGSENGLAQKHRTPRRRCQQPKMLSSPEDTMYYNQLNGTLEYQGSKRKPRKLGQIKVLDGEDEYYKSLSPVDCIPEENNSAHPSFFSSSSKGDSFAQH

[10] = system: Phosphatidylinositol 4,5-bisphosphate 3-kinase catalytic subunit alpha isoform (Homo sapiens), P42336 [Q546K]; assay: Selectivity interaction (KinomeScan (DiscoverX)) EUB0000710a PIK3CA; conditions: at 1 µM
[11] = target: T4, Serine/threonine-protein kinase TAO3 (Homo sapiens) (UniProt Q9H2K8); assay: Selectivity interaction (KinomeScan (DiscoverX)) EUB0000710a TAOK3; conditions: at 1 µM
T4 sequence (whole entry): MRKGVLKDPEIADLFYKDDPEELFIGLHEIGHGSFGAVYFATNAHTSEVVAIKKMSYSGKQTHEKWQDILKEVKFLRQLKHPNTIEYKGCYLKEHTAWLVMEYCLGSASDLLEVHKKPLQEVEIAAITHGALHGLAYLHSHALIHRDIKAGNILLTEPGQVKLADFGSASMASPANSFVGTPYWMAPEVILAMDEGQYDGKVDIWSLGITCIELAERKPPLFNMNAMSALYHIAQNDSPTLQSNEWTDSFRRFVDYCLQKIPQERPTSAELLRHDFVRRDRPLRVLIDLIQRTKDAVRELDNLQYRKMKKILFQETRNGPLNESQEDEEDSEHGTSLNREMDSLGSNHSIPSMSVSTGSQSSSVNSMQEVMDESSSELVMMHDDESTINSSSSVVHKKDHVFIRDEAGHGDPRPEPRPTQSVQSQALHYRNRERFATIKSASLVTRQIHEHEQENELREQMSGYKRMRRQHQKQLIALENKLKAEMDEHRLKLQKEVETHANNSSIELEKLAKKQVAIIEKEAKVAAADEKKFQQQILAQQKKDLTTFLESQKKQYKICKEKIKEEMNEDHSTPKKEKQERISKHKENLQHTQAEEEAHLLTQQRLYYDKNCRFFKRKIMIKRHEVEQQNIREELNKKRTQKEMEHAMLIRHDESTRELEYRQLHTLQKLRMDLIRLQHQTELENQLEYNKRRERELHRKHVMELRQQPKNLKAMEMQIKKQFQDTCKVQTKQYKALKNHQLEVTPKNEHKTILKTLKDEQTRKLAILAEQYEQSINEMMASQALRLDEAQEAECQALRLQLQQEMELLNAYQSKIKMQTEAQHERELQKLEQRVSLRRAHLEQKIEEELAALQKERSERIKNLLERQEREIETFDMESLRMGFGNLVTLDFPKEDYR

[12] = target: Serine/threonine-protein kinase TNNI3K (Homo sapiens) (UniProt Q59H18); assay: Selectivity interaction (KinomeScan (DiscoverX)) EUB0000710a TNNI3K; conditions: at 1 µM
[13] = target: 5-hydroxytryptamine receptor 2B (Homo sapiens, UniProt P41595); assay: Selectivity interaction (GPCR panel (PDSP screen)) EUB0000710a HTR2B
[14] = target: Phosphatidylinositol 4,5-bisphosphate 3-kinase catalytic subunit alpha isoform (Homo sapiens, UniProt P42336); assay: Selectivity interaction (KinomeScan (DiscoverX)) EUB0000326a PIK3CA; conditions: Inhibition of LnCaP-FGC cell proliferation > […] µM (PMID: 28953875);, Selectivity Remarks Screened at 1 µM (in vitro, >[…]-fold less potent then probe A-485), Selectivity Source Knowledge ht
[15] = target: High affinity nerve growth factor receptor (Homo sapiens, UniProt P04629); assay: Selectivity interaction (KinomeScan (DiscoverX)) EUB0000326a NTRK1; conditions: Inhibition of LnCaP-FGC cell proliferation > […] µM (PMID: 28953875);, Selectivity Remarks Screened at 1 µM (in vitro, >[…]-fold less potent then probe A-485), Selectivity Source Knowledge ht
[16] = target: T2, Gamma-aminobutyric acid receptor subunit alpha-1; assay: Selectivity interaction (GPCR panel (PDSP screen)) EUB0000326a GABRA1
[17] = target: T5, Ephrin type-B receptor 6 (Homo sapiens) (UniProt O15197); assay: Selectivity interaction (KinomeScan (DiscoverX)) EUB0000326a EPHB6; conditions: Inhibition of LnCaP-FGC cell proliferation > […] µM (PMID: 28953875);, Selectivity Remarks Screened at 1 µM (in vitro, >[…]-fold less potent then probe A-485), Selectivity Source Knowledge ht
T5 sequence (whole entry): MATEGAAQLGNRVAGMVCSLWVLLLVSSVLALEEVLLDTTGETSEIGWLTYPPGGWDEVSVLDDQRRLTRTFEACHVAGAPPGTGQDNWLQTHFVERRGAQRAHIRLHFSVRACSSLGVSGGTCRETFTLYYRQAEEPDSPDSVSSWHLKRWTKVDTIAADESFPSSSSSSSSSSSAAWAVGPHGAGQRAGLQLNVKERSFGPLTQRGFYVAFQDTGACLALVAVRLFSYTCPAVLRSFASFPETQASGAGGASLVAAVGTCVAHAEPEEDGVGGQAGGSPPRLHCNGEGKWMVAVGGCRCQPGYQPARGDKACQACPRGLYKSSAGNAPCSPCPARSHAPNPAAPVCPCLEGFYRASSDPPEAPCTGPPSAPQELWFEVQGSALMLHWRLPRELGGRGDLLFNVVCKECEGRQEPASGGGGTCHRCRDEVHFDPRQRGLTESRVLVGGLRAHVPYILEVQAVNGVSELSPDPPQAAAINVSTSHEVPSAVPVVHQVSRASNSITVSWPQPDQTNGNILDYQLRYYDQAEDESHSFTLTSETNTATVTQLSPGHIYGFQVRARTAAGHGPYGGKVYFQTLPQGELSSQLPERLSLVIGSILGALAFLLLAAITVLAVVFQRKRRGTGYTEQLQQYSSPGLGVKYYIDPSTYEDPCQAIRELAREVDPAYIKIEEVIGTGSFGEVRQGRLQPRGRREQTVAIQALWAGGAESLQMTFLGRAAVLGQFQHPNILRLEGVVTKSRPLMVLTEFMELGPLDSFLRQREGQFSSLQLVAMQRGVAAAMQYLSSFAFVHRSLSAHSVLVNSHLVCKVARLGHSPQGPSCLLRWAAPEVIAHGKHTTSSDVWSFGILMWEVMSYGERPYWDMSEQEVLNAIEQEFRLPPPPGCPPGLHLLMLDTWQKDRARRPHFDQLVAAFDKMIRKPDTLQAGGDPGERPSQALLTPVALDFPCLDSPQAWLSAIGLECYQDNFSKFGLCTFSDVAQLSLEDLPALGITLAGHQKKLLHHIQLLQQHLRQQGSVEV

Sequence of Sodium-dependent dopamine transporter (Q01959 whole entry): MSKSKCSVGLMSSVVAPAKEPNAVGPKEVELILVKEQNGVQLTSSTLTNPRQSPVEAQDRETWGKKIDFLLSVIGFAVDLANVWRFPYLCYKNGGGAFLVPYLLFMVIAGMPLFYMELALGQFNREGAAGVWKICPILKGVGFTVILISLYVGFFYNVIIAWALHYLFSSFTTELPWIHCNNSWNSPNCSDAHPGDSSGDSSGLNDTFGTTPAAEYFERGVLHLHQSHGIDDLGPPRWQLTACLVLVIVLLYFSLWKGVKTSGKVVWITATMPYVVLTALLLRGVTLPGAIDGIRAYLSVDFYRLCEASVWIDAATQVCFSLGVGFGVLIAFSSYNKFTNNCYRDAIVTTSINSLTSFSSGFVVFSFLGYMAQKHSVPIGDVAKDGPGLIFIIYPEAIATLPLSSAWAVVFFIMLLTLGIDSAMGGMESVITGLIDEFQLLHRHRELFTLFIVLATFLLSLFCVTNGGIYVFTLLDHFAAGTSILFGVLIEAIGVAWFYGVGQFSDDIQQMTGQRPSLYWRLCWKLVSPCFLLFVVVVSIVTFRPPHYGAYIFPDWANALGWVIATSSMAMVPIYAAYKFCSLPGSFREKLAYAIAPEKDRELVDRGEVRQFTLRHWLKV
Sequence of Serine/threonine-protein kinase TNNI3K (Homo sapiens) (Q59H18 whole entry): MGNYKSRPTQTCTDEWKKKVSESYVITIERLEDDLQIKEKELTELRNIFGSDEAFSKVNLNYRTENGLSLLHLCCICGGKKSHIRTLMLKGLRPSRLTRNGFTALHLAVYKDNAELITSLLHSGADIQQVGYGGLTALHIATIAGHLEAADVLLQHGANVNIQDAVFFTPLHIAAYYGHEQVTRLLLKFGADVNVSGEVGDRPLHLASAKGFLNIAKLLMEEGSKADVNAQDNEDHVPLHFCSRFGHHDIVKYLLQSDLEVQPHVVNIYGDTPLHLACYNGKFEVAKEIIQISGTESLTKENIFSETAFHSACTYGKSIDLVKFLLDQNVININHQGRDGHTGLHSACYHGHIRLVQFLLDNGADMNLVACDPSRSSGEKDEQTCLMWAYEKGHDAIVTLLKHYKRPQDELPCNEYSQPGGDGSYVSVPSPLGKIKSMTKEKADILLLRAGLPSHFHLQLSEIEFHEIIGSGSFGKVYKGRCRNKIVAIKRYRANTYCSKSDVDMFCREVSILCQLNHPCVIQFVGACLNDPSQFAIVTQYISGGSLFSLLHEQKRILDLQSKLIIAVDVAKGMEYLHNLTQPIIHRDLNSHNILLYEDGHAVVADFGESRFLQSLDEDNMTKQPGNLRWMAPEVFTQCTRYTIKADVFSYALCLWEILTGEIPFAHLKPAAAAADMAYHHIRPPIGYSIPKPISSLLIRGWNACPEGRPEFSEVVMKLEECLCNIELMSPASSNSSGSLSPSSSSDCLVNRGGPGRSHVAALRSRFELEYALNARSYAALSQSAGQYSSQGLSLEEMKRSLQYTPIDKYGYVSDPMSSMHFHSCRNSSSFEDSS
Sequence of Epidermal growth factor receptor (Homo sapiens), P00533 [L861Q] (P00533 whole entry L861Q): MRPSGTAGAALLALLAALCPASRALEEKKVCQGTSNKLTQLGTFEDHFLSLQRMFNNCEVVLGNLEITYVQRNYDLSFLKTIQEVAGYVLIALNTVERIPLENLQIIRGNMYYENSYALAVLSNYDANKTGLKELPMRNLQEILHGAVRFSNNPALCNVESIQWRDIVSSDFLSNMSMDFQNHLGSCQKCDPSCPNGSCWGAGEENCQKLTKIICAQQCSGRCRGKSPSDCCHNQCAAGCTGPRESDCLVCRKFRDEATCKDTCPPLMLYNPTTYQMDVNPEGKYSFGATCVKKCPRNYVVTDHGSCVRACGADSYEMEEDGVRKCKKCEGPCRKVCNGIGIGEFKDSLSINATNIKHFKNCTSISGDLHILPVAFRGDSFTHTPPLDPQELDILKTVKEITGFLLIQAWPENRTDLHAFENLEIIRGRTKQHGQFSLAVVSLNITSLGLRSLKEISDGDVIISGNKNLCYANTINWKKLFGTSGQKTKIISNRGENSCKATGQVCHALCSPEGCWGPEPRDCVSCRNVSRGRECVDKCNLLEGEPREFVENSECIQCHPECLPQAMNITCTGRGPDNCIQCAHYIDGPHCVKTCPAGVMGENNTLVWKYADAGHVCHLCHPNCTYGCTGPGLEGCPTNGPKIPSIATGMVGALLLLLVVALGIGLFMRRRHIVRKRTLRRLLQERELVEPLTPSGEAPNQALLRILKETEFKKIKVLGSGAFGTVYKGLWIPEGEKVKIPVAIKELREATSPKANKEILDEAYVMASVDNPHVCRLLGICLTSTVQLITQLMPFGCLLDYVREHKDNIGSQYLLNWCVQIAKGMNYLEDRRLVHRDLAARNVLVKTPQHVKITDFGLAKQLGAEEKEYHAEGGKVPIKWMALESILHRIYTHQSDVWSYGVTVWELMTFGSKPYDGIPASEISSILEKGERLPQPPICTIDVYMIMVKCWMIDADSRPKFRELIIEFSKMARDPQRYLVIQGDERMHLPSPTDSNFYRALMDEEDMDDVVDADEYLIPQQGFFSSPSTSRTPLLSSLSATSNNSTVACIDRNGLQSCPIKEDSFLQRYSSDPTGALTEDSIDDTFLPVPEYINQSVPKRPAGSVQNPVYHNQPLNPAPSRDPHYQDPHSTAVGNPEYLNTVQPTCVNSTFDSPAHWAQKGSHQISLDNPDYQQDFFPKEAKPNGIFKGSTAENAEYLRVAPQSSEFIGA
Sequence of Protein kinase C epsilon type (Homo sapiens) (Q02156 whole entry): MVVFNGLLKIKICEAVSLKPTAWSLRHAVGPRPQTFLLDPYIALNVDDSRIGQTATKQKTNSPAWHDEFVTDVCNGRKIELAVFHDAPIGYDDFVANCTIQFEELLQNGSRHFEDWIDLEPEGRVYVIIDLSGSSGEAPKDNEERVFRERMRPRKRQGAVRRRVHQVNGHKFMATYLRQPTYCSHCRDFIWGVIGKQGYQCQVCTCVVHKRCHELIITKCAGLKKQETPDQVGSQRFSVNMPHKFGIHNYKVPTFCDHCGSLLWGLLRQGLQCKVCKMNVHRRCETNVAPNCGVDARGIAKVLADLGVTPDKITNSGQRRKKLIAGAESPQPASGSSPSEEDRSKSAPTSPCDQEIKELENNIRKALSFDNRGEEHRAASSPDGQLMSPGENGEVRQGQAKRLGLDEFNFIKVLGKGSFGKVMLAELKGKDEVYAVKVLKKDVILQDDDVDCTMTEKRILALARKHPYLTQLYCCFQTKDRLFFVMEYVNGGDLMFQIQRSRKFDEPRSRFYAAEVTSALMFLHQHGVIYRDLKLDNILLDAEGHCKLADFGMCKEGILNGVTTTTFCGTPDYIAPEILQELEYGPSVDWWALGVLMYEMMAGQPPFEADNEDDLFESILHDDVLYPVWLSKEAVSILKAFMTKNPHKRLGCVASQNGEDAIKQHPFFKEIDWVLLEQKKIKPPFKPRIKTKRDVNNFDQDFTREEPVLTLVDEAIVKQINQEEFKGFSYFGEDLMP
Sequence of High affinity nerve growth factor receptor (P04629 33-796 limits assumed): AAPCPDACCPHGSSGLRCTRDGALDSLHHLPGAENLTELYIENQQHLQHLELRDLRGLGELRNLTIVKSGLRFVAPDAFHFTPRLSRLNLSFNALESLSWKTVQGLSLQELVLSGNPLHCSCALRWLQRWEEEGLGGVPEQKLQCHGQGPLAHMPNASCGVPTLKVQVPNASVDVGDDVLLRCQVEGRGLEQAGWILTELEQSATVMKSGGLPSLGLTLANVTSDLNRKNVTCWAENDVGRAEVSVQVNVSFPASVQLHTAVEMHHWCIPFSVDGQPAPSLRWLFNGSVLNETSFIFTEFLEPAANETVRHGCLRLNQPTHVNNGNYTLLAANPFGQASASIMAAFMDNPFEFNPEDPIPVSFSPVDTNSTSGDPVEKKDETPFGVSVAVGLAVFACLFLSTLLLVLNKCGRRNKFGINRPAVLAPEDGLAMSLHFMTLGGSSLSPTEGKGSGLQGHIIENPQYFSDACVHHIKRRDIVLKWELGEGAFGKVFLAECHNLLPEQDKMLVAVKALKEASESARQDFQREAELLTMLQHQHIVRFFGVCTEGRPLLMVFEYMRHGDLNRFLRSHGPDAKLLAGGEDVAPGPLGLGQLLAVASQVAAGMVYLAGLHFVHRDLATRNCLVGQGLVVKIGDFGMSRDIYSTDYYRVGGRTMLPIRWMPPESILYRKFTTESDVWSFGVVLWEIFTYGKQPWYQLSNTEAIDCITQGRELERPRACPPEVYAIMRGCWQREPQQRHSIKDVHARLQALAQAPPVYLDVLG
Sequence of 5-hydroxytryptamine receptor 2B (P41595 whole entry, canonical isoform): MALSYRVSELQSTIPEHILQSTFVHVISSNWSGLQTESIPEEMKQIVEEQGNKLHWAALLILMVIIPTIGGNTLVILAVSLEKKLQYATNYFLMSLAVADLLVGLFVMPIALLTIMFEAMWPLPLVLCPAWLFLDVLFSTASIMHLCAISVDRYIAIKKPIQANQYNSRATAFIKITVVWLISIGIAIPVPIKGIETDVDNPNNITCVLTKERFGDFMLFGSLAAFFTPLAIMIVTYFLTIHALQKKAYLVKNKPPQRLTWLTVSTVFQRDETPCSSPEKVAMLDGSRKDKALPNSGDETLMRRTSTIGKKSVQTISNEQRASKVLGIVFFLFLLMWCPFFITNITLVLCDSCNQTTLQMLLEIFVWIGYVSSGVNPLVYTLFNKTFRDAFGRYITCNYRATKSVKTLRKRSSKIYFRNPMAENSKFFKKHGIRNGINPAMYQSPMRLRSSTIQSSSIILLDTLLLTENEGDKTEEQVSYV

CNC(=O)Nc1ccc2c(c1)CC[C@@]21OC(=O)N(CC(=O)N(Cc2ccc(F)cc2)[C@@H](C)C(F)(F)F)C1=O [A-485] showed a % of inhibition [1] of 94%, a % of control [2] of 49% and a % of control [3] of 22%. For the same molecule, the % of control [4] was 47%, the % of inhibition [5] was 99% and the Ki [6] was 1110 nM.

Molecule Cc1cnc(-c2cc(Cl)ccc2F)cc1-n1c(=O)n(CC(N)=O)c2ccccc21 [Al11] has a % of control [7] of 47%, a % of control [8] of 39.5% and a % of control [9] of 49%. It also gave a % of control [10] of 41%, a % of control [11] of 54% and a % of control [12] of 51%. It also gave a Ki [13] of 1880 nM.

CNC(=O)Nc1ccc2c(c1)[C@@]1(CC2)OC(=O)N(CC(=O)N(Cc2ccc(F)cc2)[C@@H](C)C(F)(F)F)C1=O [A-486] was tested, and the % of control [14] was 28%, the % of control [15] was 41% and the Ki [16] was 2580 nM. The % of control [17] was 0%.
